ChEMBL document CHEMBL2321673, “Critical role of a methyl group on the γ-lactone ring of annonaceous acetogenins in the potent inhibition of mitochondrial complex I” (Bioorg Med Chem Lett, 2013)

Target: NADH-ubiquinone oxidoreductase chain 1 (Bos taurus, UniProt P03887)
Assay: Inhibition of bovine heart mitochondrial complex 1

Sequence of NADH-ubiquinone oxidoreductase chain 1 (P03887 whole entry): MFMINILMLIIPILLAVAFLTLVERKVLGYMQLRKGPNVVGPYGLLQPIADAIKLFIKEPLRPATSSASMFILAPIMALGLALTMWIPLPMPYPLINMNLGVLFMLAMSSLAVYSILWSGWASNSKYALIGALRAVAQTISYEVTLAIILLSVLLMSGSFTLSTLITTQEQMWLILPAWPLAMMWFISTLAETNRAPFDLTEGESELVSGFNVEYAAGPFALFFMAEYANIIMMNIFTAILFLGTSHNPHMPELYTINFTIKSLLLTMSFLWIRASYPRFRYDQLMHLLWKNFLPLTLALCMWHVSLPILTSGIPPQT

| SMILES | IC50 |
| --- | --- |
| CCCCCCCCCCCC[C@@H](O)[C@H]1CC[C@H]([C@H](O)CCCCCCCCCCCCC2=C[C@H](C(F)F)OC2=O)O1 | 31 nM |
| CCCCCCCCCCCC[C@@H](O)[C@H]1CC[C@H]([C@H](O)CCCCCCCCCCCCC2=C[C@H](CF)OC2=O)O1 | 2.9 nM |
| CCCCCCCCCCCC[C@@H](O)[C@H]1CC[C@H]([C@H](O)CCCCCCCCCCCCC2=C[C@H](C(F)(F)F)OC2=O)O1 | 310 nM |
| CCCCCCCCCCCC[C@@H](O)[C@H]1CC[C@H]([C@H](O)CCCCCCCCCCCCC2=C[C@@H](C)OC2=O)O1 | 270 nM |
| CCCCCCCCCCCC[C@@H](O)[C@H]1CC[C@H]([C@H](O)CCCCCCCCCCCCC2=C[C@H](C)OC2=O)O1 [REL-SOLAMIN] | 2.1 nM |
| CCCCCCCCCCCC[C@@H](O)[C@H]1CC[C@H]([C@H](O)CCCCCCCCCCCCC2=C[C@@H](C(F)(F)F)OC2=O)O1 | 570 nM |
